# Assay results reported in US20210139477A1, “ALK5 INHIBITORS, CONJUGATES, AND USES THEREOF” (Silverback Therapeutics, Inc., priority 2019, published 2021).
# Tested on: TGFb/SMAD Signaling Pathway SBE reporter cell line
# Experiment: TGFb reporter assay (TGFb/SMAD Signaling Pathway SBE luciferase reporter cell line)
# Type: cell-based
# Details: 5-6 h preincubation, then TGFb, 18 h, luciferase luminescence
# Method: TGFβ/SMAD Signaling Pathway SBE reporter cell line was obtained from BPS Bioscience. Cells were passed, expanded, and stored in liquid nitrogen as per the supplier's instructions with the exception that growth media is changed to DMEM-C with Geneticin (DMEM supplemented with 10% fetal bovine serum, 1×NEAA, 1 mM Pyruvate, 2 mM glutamine, 50 μg/mL penicillin, 50 U/mL streptomycin and 400 μg/mL of Geneticin). The assay media was MEM supplemented with 0.5% fetal bovine serum, 1×NEAA, 1 mM Pyruvate, 50 μg/mL penicillin and 50 U/mL streptomycin.
# TGFb/SMAD Signaling Pathway SBE reporter cell line was obtained from BPS Bioscience. Cells were passed/expanded/stored in liquid nitrogen per supplier's instruction with the exception that growth media was changed to DMEM-C with Geneticin (DMEM supplemented with 10% fetal bovine serum, IX NEAA, 1 mM Pyruvate, 2 mM glutamine, 50 μg/mL penicillin, 50 U/mL streptomycin and 400 ug/mL of Geneticin). The assay media was MEM supplemented with 0.5% fetal bovine serum, IX NEAA, 1 mM Pyruvate, 50 μg/mL penicillin and 50 U/mL streptomycin.
# Reporter cells were harvested from the tissue culture flasks by incubation in small quantity of Versene at room temperature for three to five minutes after the media in the flask was removed and cells rinsed with PBS. Cells were counted and diluted in the assay media at 0.8×10^6 cells/mL then 50 uL/well were added to 96-well assay plate. Test samples (at desired concentrations diluted in assay media) were added to assay plate containing the 50 uL/well of cells (or media only), 50 uL per well, and incubated for 5-6 hours at 37° C. in a 5% CO2 humidified incubator. After that time, 15 uL of TGFb diluted to 12.5 ng/mL in the assay media was added to the plate. Controls included TGFb titration (from 25 to 0 ng/mL) without inhibitors, and media only (without cells, inhibitor or TGFb). Plates were incubated at 37° C. in a […] humidified incubator for 18 h. Luciferase substrate solution was subsequently added at 75 uL per well, incubated in dark with shaking at room temperature for 10 min, and luminescence was measured using a luminometer.
row,Compound,EC50
1,COc1cccc(CNCc2nc(-c3cccc(C)n3)c(-c3ccc4ncnn4c3)[nH]2)c1C [Compound 46],0.0001 to 0.01 µM
2,Cc1cccc(-c2nc(CNCc3ccccc3C(C)C)[nH]c2-c2ccc3ncnn3c2)n1 [Compound 23],0.0001 to 0.01 µM
3,Cc1cccc(-c2nc(CNCc3ccccc3)[nH]c2-c2ccc3ncccc3n2)n1 [Compound 73],0.1 to 1 µM
4,Cc1cccc(-c2nc(CNCCc3ccccc3F)[nH]c2-c2ccc3ncnn3c2)n1 [Compound 59],0.0001 to 0.01 µM
5,Cc1cccc(-c2nc(CNCc3ccccc3-c3cccc(F)c3)[nH]c2-c2ccc3ncnn3c2)n1 [Compound 37],0.01 to 0.1 µM
6,Cc1cccc(-c2nc(CNCc3cccc(C)c3-c3ccccc3)[nH]c2-c2ccc3ncnn3c2)n1 [Compound 48],0.01 to 0.1 µM
7,CCc1ccccc1CNCc1nc(-c2cccc(C)n2)c(-c2ccc3ncnn3c2)[nH]1 [Compound 22],0.0001 to 0.01 µM
8,Cc1cccc(-c2nc(CNCc3ccccc3-c3ccccc3)[nH]c2-c2ccc3c(c2)OCO3)n1 [Compound 71],0.1 to 1 µM
9,Cc1cccc(-c2nc(CNCc3ccccc3)[nH]c2-c2ccccn2)n1 [Compound 75],0.1 to 1 µM
10,Cc1cccc(-c2nc(CNCc3ccccc3-c3ccc(CN)cc3)[nH]c2-c2ccc3ncnn3c2)n1 [Compound 34],0.1 to 1 µM
11,Cc1cccc(-c2nc(CNCc3ccccc3Oc3ccncc3)[nH]c2-c2ccc3ncnn3c2)n1 [Compound 55],1 to 10 µM
12,Cc1cccc(-c2nc(CNCCc3c(F)cccc3F)[nH]c2-c2ccnc3ccccc23)n1 [Compound 79],0.1 to 1 µM
13,Cc1cccc(-c2nc(CNCc3cccc(Oc4ccncc4)c3)[nH]c2-c2ccc3ncnn3c2)n1 [Compound 58],0.01 to 0.1 µM
14,COC(=O)[C@H](NCc1nc(-c2cccc(C)n2)c(-c2ccc3ncnn3c2)[nH]1)c1ccccc1 [Compound 15],0.1 to 1 µM
15,Cc1cccc(-c2nc(CNCc3ccccc3N(C)C)[nH]c2-c2ccc3ncnn3c2)n1 [Compound 25],0.0001 to 0.01 µM
16,Cc1cccc(-c2nc(CNCc3cccc(C)c3C)[nH]c2-c2ccc3ncnn3c2)n1 [Compound 45],0.0001 to 0.01 µM
17,Cc1cccc(-c2nc(CNCc3cc(Cl)ccc3Cl)[nH]c2-c2ccc3ncnn3c2)n1 [Compound 5],0.01 to 0.1 µM
18,COc1ccc(OC)c(CNCc2nc(-c3cccc(C)n3)c(-c3ccc4ncnn4c3)[nH]2)c1 [Compound 9],0.01 to 0.1 µM
19,Cc1cccc(-c2nc(CNCc3ccccc3)[nH]c2-c2ccc3c(c2)OCO3)n1 [Compound 76],0.01 to 0.1 µM
20,Cc1cccc(-c2nc(CNCc3ccccc3-c3ccc(F)cc3)[nH]c2-c2ccc3ncnn3c2)n1 [Compound 35],0.0001 to 0.01 µM
21,Cc1cccc(-c2nc(CNCc3ccccc3)[nH]c2-c2ccc3nccnc3c2)n1 [Compound 77],0.0001 to 0.01 µM
22,Cc1cccc(-c2nc(CNCc3ccccc3-c3cc(F)cc(F)c3)[nH]c2-c2ccc3ncnn3c2)n1 [Compound 39],0.01 to 0.1 µM

row,Compound,EC50
1,Cc1cccc(-c2nc(CNCc3ccccc3-c3ccccc3)[nH]c2-c2ccc3ncccc3n2)n1 [Compound 68],0.01 to 0.1 µM
2,Cc1cccc(-c2nc(CNCc3ccccc3C3CCCC3)[nH]c2-c2ccc3ncnn3c2)n1 [Compound 44],0.01 to 0.1 µM
3,Cc1cccc(-c2nc(CNCc3ccccc3C3CCCCC3)[nH]c2-c2ccc3ncnn3c2)n1 [Compound 43],0.1 to 1 µM
4,Cc1cccc(-c2nc(CNCc3ccccc3-c3cccc(CNC(=O)OC(C)(C)C)c3)[nH]c2-c2ccc3ncnn3c2)n1 [Compound 30],0.1 to 1 µM
5,Cc1cccc(-c2nc(CNCc3ccccc3C)[nH]c2-c2ccc3ncnn3c2)n1 [Compound 21],0.0001 to 0.01 µM
6,Cc1cccc(-c2nc(CNCc3ccccc3-c3ccc(CNC(=O)OC(C)(C)C)cc3)[nH]c2-c2ccc3ncnn3c2)n1 [Compound 31],0.1 to 1 µM
7,"Cc1cccc(-c2nc(CNCc3ccccc3)[nH]c2-c2ccc3ncnn3c2)n1 [Compound 1, 1-(5-([1,2,4]triazolo[1,5-a]pyridin-6-yl)-4-(6-methylpyridin-2-yl)-1H-imidazol-2-yl)-N-benzylmethanamine]",0.0001 to 0.01 µM
8,Cc1cccc(-c2nc(CNCc3cccc(Oc4cccnc4)c3)[nH]c2-c2ccc3ncnn3c2)n1 [Compound 57],0.01 to 0.1 µM
9,Cc1cccc(-c2nc(CN[C@@H](CO)c3ccccc3)[nH]c2-c2ccc3ncnn3c2)n1 [Compound 14],0.01 to 0.1 µM
10,Cc1cccc(-c2nc(CN[C@H](C)c3ccccc3)[nH]c2-c2ccc3ncnn3c2)n1 [Compound 11],0.01 to 0.1 µM
11,Cc1cccc(-c2nc(CNCc3ccc(Cl)cc3)[nH]c2-c2ccc3ncnn3c2)n1 [Compound 3],0.01 to 0.1 µM
12,Cc1cccc(-c2nc(CNCc3ccccc3-c3ccccc3)[nH]c2-c2ccnc3ccccc23)n1 [Compound 69],0.1 to 1 µM
13,Cc1cccc(-c2nc(CNCCN(C)c3ccccc3)[nH]c2-c2ccc3ncccc3n2)n1 [Compound 85],0.0001 to 0.01 µM
14,COc1ccc(CNCc2nc(-c3cccc(C)n3)c(-c3ccc4ncnn4c3)[nH]2)cc1 [Compound 8],0.1 to 1 µM
15,Cc1cccc(-c2nc(CNCc3cccc(-c4ccccc4)c3)[nH]c2-c2ccc3ncnn3c2)n1 [Compound 51],0.1 to 1 µM
16,Cc1cccc(-c2nc(CNCc3ccccc3)[nH]c2-c2ccc3ncccc3c2)n1 [Compound 90],0.0001 to 0.01 µM
17,Cc1cccc(-c2nc(CNCc3ccccc3-c3ccccc3)[nH]c2-c2ccc3ncccc3c2)n1 [Compound 91],0.01 to 0.1 µM
18,Cc1cccc(-c2nc(CNCc3ccccc3C(O)C(F)(F)F)[nH]c2-c2ccc3ncnn3c2)n1 (stereo not drawn) [Compound 28],0.0001 to 0.01 µM
19,Cc1cccc(-c2nc(CNCc3ccccc3-c3cccnc3)[nH]c2-c2ccc3ncnn3c2)n1 [Compound 41],0.0001 to 0.01 µM
20,Cc1cccc(-c2nc(CNCCNc3ccccc3)[nH]c2-c2ccc3ncnn3c2)n1 [Compound 66],0.0001 to 0.01 µM
21,Cc1cccc(-c2nc(CNCc3ccccc3-c3ccccc3)[nH]c2-c2ccc3ncnn3c2)n1 [Compound 24],0.0001 to 0.01 µM
22,Cc1cccc(-c2nc(CNCc3ccccc3-c3cccc(CN)c3)[nH]c2-c2ccc3ncnn3c2)n1 [Compound 33],0.1 to 1 µM

row,Compound,EC50
1,Cc1cccc(-c2nc(CNCc3cccc(Cl)c3)[nH]c2-c2ccc3ncnn3c2)n1 [Compound 2],0.01 to 0.1 µM
2,Cc1cccc(-c2nc(CNCc3ccccc3-c3ccccc3)[nH]c2-c2ccc3nccnc3c2)n1 [Compound 72],0.01 to 0.1 µM
3,Cc1cccc(-c2nc(CNCCCc3ccccc3)[nH]c2-c2ccc3ncnn3c2)n1 [Compound 64],0.0001 to 0.01 µM
4,Cc1cccc(-c2nc(CNCc3ccc(Cl)c(Cl)c3)[nH]c2-c2ccc3ncnn3c2)n1 [Compound 4],0.1 to 1 µM
5,Cc1cccc(-c2nc(CNC(c3ccccc3)c3ccccc3)[nH]c2-c2ccc3ncnn3c2)n1 [Compound 13],0.0001 to 0.01 µM
6,Cc1cccc(-c2nc(CNCCN(C)c3ccccc3)[nH]c2-c2ccc3ncnn3c2)n1 [Compound 67],0.0001 to 0.01 µM
7,COc1ccccc1CCNCc1nc(-c2cccc(C)n2)c(-c2ccc3ncccc3n2)[nH]1 [Compound 84],0.0001 to 0.01 µM
8,Cc1cccc(-c2nc(CNCc3ccccc3Oc3ccccc3)[nH]c2-c2ccc3ncnn3c2)n1 [Compound 53],0.0001 to 0.01 µM
9,Cc1cccc(-c2nc(CNCc3ccccc3-c3ccncc3)[nH]c2-c2ccc3ncnn3c2)n1 [Compound 42],0.01 to 0.1 µM
10,Cc1cccc(-c2nc(CNCCc3c(F)cccc3F)[nH]c2-c2ccncc2)n1 [Compound 80],0.1 to 1 µM
11,Cc1cccc(-c2nc(CNCCc3c(F)cccc3F)[nH]c2-c2ccc3c(c2)OCO3)n1 [Compound 81],0.01 to 0.1 µM
12,Cc1cccc(-c2nc(CNCc3ccccc3CC(F)(F)F)[nH]c2-c2ccc3ncnn3c2)n1 [Compound 27],0.0001 to 0.01 µM
13,Cc1cccc(-c2nc(CNCc3ccccc3)[nH]c2-c2ccnc3ccccc23)n1 [Compound 74],0.1 to 1 µM
14,Cc1cccc(-c2nc(CNCc3ccccc3C#N)[nH]c2-c2ccc3ncnn3c2)n1 [Compound 20],0.1 to 1 µM
15,Cc1cccc(-c2nc(CNCc3ccccc3F)[nH]c2-c2ccc3ncnn3c2)n1 [Compound 18],0.0001 to 0.01 µM
16,COc1ccccc1CCNCc1nc(-c2cccc(C)n2)c(-c2ccc3nccnc3c2)[nH]1 [Compound 87],0.0001 to 0.01 µM
17,Cc1cccc(-c2nc(CNCCc3c(F)cccc3F)[nH]c2-c2ccc3ncnn3c2)n1 [Compound 60],0.0001 to 0.01 µM
18,Cc1cccc(-c2nc(CNCc3cccc(Oc4ccccc4)c3)[nH]c2-c2ccc3ncnn3c2)n1 [Compound 56],0.01 to 0.1 µM
19,Cc1cccc(-c2nc(CNCc3cccc(Cl)c3C)[nH]c2-c2ccc3ncnn3c2)n1 [Compound 47],0.0001 to 0.01 µM
20,COc1ccccc1CNCc1nc(-c2cccc(C)n2)c(-c2ccc3ncnn3c2)[nH]1 [Compound 17],0.01 to 0.1 µM
21,Cc1cccc(-c2nc(CNCc3ccccc3-c3ccccc3F)[nH]c2-c2ccc3ncnn3c2)n1 [Compound 38],0.0001 to 0.01 µM
22,Cc1cccc(-c2nc(CNCc3ccccc3-c3ccccc3CNC(=O)OC(C)(C)C)[nH]c2-c2ccc3ncnn3c2)n1 [Compound 29],0.1 to 1 µM
